Read-outs that look alike come from different tables or passages of the source. Residues, ends and D or L forms follow the SMILES beside them.
Columns and labels:
HCT-116 cells = type: cell-based, human; details: for Viable, Mean (%): human; for Viable, Mean (%) / Early Apoptosis, Mean (%) / Late apoptosis, Mean (%): 2 h; for Early Apoptosis, Mean (%) / Late apoptosis, Mean (%): HCT-116 cells
Procedure: 2.2.2. Cell Death Analysis by Flow Cytometry
To detect possible apoptotic processes, cells were seeded in 35 mm dishes and cultured in media containing each tested cyclic peptide for 2 hours following procedure A or B.
Procedure B: Peptides were incubated for 2 hours on HCT-116 cells. Superkiller Trail (ALX-201-115C-010) was used as a positive pro-apoptotic control. Cells were analyzed by cytofluorometry using FITC Annexin V apoptosis detection kit with 7-AAD from BIOLEGEND (BLE640922).

[1] = test system: MCF-7, HCT-116, BxPC3 and A549 cancer cells; test: Cell viability and proliferation of tumor cells (cytotoxic assay and direct cell counting); type: cell-based, human; details: for efficiency in inducing cell death on cancer cell lines: MCF-7, HCT-116, BxPC3, A549; for viability in all cell strains: 2 hours, 10 to 50 μM peptide concentration
Procedure: The effects of several cyclic peptides of the invention on the proliferation of tumor cells were evaluated on 5 cell lines (MCF-7, human breast cancer cells; HCT-116, human colon cancer cells; BxPC3, human pancreas cancer cells and A549, human lung cancer cells) by cytotoxic assay and by counting directly the number of cells.
Those cyclic peptides were dissolved in DMSO at the following concentrations: 0, 5, 10, 25, 50 and 100 μM.
Culture media used for these assays are: EMEM=10% SVF for MCF-7 and Wi38; RPMI […] SVF for HCT-116 and BxPC3 and F-12K=10% SVF for A549.
500 cells were seeded in 96-well plates, incubated at 37° C. for 24 hours, and treated by the cyclic peptides at the different concentrations and controls for 2 h.

[2] = peptide concentration 12.5 (μM)

| Compound | Viable, Mean (%) (HCT-116 cells; 12.5 μM) | Viable, Mean (%) (HCT-116 cells; 25 μM) | Viable, Mean (%) (HCT-116 cells; 50 μM) | viability in all cell strains [1] | also measured |
| --- | --- | --- | --- | --- | --- |
| CSCC[C@@H]1NC(=O)[C@@H](C(C)C)NC(=O)[C@H](C(C)C)NC(=O)[C@H](Cc2ccc(O)cc2)NC(=O)[C@H](Cc2ccccc2)NC(=O)[C@H](CCCNC(=N)N)N(C)C(=O)[C@H](CO)NC(=O)[C@H](CO)NC(=O)[C@H](CC(N)=O)NC(=O)[C@H](C(C)C)NC(=O)[C@H](C(C)C)NC(=O)[C@H](CCCCN)NC(=O)[C@H](C(C)C)NC(=O)[C@H](CO)NC(=O)[C@H](CC(C)C)NC(=O)CNC(=O)[C@@H]2CCCN2C(=O)[C@H]2CCCN2C(=O)[C@H](CCCCN)NC(=O)[C@H](Cc2c[nH]c3ccccc23)NC1=O (relative stereo) [PKTD10-RNMe, —S—R*—F—Y—V—V—M—W—K—p—P—G—L—S—V—K—V—V—N—S— R* = RNMe] | 91.72% | 91.10% | 76.73% | – | – |
| CCCC[C@@H]1NC(=O)[C@@H](C(C)C)NC(=O)[C@H](C(C)C)NC(=O)[C@H](Cc2ccc(O)cc2)NC(=O)[C@H](Cc2ccccc2)NC(=O)[C@H](CCCNC(=N)N)N(C)C(=O)[C@H](CO)NC(=O)[C@H](CO)NC(=O)[C@H](CC(N)=O)NC(=O)[C@H](C(C)C)NC(=O)[C@H](C(C)C)NC(=O)[C@H](CCCCN)NC(=O)[C@H](C(C)C)NC(=O)[C@H](CO)NC(=O)[C@H](CC(C)C)NC(=O)CNC(=O)[C@@H]2CCCN2C(=O)[C@H]2CCCN2C(=O)[C@H](CCCCN)NC(=O)[C@H](Cc2c[nH]c3ccccc23)NC1=O (relative stereo) [PKTD10-X-RNMe, —S—R*—F—Y—V—V—X—W—K—p—P—G—L—S—V—K—V—V—N—S— R* = RNMe and X = NLe] | 82.76% | 75.17% | 48.31% | – | – |
| CSCC[C@@H]1NC(=O)[C@H](C(C)C)NC(=O)[C@H](C(C)C)NC(=O)[C@H](Cc2ccc(O)cc2)NC(=O)[C@H](Cc2ccccc2)NC(=O)[C@H](CCCNC(=N)N)N(C)C(=O)[C@H](CO)NC(=O)[C@H](CO)NC(=O)[C@H](CC(N)=O)NC(=O)[C@H](C(C)C)NC(=O)[C@H](C(C)C)NC(=O)[C@H](CCCCN)NC(=O)[C@H](C(C)C)NC(=O)[C@H](CO)NC(=O)[C@H](CC(C)C)NC(=O)CNC(=O)[C@H](CO)NC(=O)[C@@H]2CCCN2C(=O)[C@H]2CCCN2C(=O)[C@H](CCC(N)=O)NC(=O)[C@H](CCCCN)NC(=O)[C@H](Cc2c[nH]c3ccccc23)NC1=O (relative stereo) [PKTD11RNMe, —S—R*—F—Y—V—V—M—W—K—Q—p—P—S—G—L—S—V—K—V—V—N—S— R* = RNMe] | 88.71% | 86.38% | 67.03% | – | – |
| CSCC[C@@H]1NC(=O)[C@H](C(C)C)NC(=O)[C@H](C(C)C)NC(=O)[C@H](Cc2ccc(O)cc2)NC(=O)[C@H](Cc2ccccc2)NC(=O)[C@H](CCCNC(=N)N)NC(=O)[C@H](CCCCN)NC(=O)[C@H](Cc2c[nH]c3ccccc23)NC1=O [PKC1, reference compound] | 92.95% | 92.72% | 92.15% | – | Early Apoptosis, Mean (%) (HCT-116 cells; [2]): 4.54%; Late apoptosis, Mean (%) (HCT-116 cells; [2]): 2.25%; Early Apoptosis, Mean (%) (HCT-116 cells; peptide concentration 25 (μM)): 4.55%; Late apoptosis, Mean (%) (HCT-116 cells; peptide concentration 25 (μM)): 2.56%; Early Apoptosis, Mean (%) (HCT-116 cells; peptide concentration 50 (μM)): 4.98%; Late apoptosis, Mean (%) (HCT-116 cells; peptide concentration 50 (μM)): 2.75%; efficacy in triggering PCD (HCT-116 cells; from 12.5 to 50 μM): no efficacy; efficiency in inducing cell death on cancer cell lines [1]: no potency in inducing cell death |
| CC(C)C[C@@H]1NC(=O)[C@@H]2CCCN2C(=O)[C@H]2CCCN2C(=O)[C@H](Cc2c[nH]c3ccccc23)NC(=O)[C@H](CCCCN)NC(=O)[C@H](C(C)C)NC(=O)[C@H](C(C)C)NC(=O)[C@H](Cc2ccccc2)NC(=O)[C@H](Cc2ccccc2)NC(=O)[C@H](C(C)C)NC(=O)[C@H](C(C)C)NC(=O)[C@H](CCCCN)NC(=O)[C@H](C(C)C)NC(=O)[C@H](CO)NC1=O [PKD10-FF, —F—F—V—V—K—W—p—P—L—S—V—K—V—V—] (HELM PEPTIDE1{F.F.V.V.K.W.[dP].P.L.S.V.K.V.V}$PEPTIDE1,PEPTIDE1,1:R1-14:R2$$$V2.0) | 25.225% | 30.445% | 31.97% | – | – |
| CC[C@H](C)[C@@H]1NC(=O)CNC(=O)[C@@H]2CCCN2C(=O)[C@H]2CCCN2C(=O)[C@H](CCCCN)NC(=O)[C@H](Cc2c[nH]c3ccccc23)NC(=O)[C@H](CCSC)NC(=O)[C@H](C(C)C)NC(=O)[C@H](C(C)C)NC(=O)[C@H](Cc2ccc(O)cc2)NC(=O)[C@H](Cc2ccccc2)NC(=O)[C@H](CCCNC(=N)N)NC(=O)[C@H](CO)NC(=O)[C@H](CO)NC(=O)[C@H](CCCCN)NC(=O)[C@H](C(C)C)NC(=O)[C@H](C(C)C)NC(=O)[C@H](CCCCN)NC(=O)[C@H](C(C)C)NC(=O)[C@H](CO)NC1=O [PKTD1, —S—R—F—Y—V—V—M—W—K—p—P—G—I—S—V—K—V—V—K—S—] (HELM PEPTIDE1{G.I.S.V.K.V.V.K.S.S.R.F.Y.V.V.M.W.K.[dP].P}$PEPTIDE1,PEPTIDE1,1:R1-20:R2$$$V2.0) | 76.44% | 63.51% | 37.56% | – | – |
| CC[C@@H](C)[C@@H]1NC(=O)CNC(=O)[C@@H]2CCCN2C(=O)[C@H]2CCCN2C(=O)[C@H](CCCCN)NC(=O)[C@H](Cc2c[nH]c3ccccc23)NC(=O)[C@H](CCSC)NC(=O)[C@@H](C(C)C)NC(=O)[C@H](C(C)C)NC(=O)[C@H](Cc2ccc(O)cc2)NC(=O)[C@H](Cc2ccccc2)NC(=O)[C@H](CCCNC(=N)N)NC(=O)C(CC(N)=O)NC(=O)[C@H](C(C)C)NC(=O)[C@H](C(C)C)NC(=O)[C@H](CCCCN)NC(=O)[C@H](C(C)C)NC(=O)[C@H](CO)NC1=O (some centres unmarked) [PKTD7, —R—F—Y—V—V—M—W—K—p—P—G—I—S—V—K—V—V—N—] (HELM PEPTIDE1{G.[CC[C@@H](C)[C@H](N[*:1])C(=O)[*:2]].S.V.K.V.V.[NC(=O)CC(N[*:1])C(=O)[*:2]].R.F.Y.V.[dV].M.W.K.[dP].P}$PEPTIDE1,PEPTIDE1,1:R1-18:R2$$$V2.0) | – | – | – | dose-dependent viability decrease | efficiency in inducing cell death on cancer cell lines [1]: efficient in inducing cell death |
| CSCC[C@@H]1NC(=O)[C@H](C(C)C)NC(=O)[C@H](C(C)C)NC(=O)[C@H](Cc2ccc(O)cc2)NC(=O)[C@H](Cc2ccccc2)NC(=O)[C@H](CCCNC(=N)N)NC(=O)[C@H](CO)NC(=O)[C@H](CO)NC(=O)[C@H](CC(N)=O)NC(=O)[C@H](C(C)C)NC(=O)[C@H](C(C)C)NC(=O)[C@H](CCCCN)NC(=O)[C@H](C(C)C)NC(=O)[C@H](C)NC(=O)[C@H](CC(C)C)NC(=O)CNC(=O)[C@@H]2CCCN2C(=O)[C@H]2CCCN2C(=O)[C@H](CCCCN)NC(=O)[C@H](Cc2c[nH]c3ccccc23)NC1=O [PKTD10-3, —S—R—F—Y—V—V—M—W—K—p—P—G—L—A—V—K—V—V—N—S—] (HELM PEPTIDE1{S.R.F.Y.V.V.M.W.K.[dP].P.G.L.A.V.K.V.V.N.S}$PEPTIDE1,PEPTIDE1,1:R1-20:R2$$$V2.0) | 86.83% | 79.30% | 79.67% | dose-dependent viability decrease | Early Apoptosis, Mean (%) (HCT-116 cells; [2]): 8.17%; Late apoptosis, Mean (%) (HCT-116 cells; [2]): 4.35%; Early Apoptosis, Mean (%) (HCT-116 cells; peptide concentration 25 (μM)): 13.16%; Late apoptosis, Mean (%) (HCT-116 cells; peptide concentration 25 (μM)): 7.06%; Early Apoptosis, Mean (%) (HCT-116 cells; peptide concentration 50 (μM)): 13.13%; Late apoptosis, Mean (%) (HCT-116 cells; peptide concentration 50 (μM)): 6.85% |
| CSCC[C@@H]1NC(=O)[C@@H](C(C)C)NC(=O)[C@H](C(C)C)NC(=O)[C@H](Cc2ccc(O)cc2)NC(=O)[C@H](Cc2ccccc2)NC(=O)[C@H](CCCNC(=N)N)NC(=O)[C@H](CO)NC(=O)CNC(=O)[C@H](CC(N)=O)NC(=O)[C@H](C(C)C)NC(=O)[C@H](C(C)C)NC(=O)[C@H](CCCCN)NC(=O)[C@H](C(C)C)NC(=O)[C@H](CO)NC(=O)[C@H](CC(C)C)NC(=O)CNC(=O)[C@@H]2CCCN2C(=O)[C@H]2CCCN2C(=O)[C@H](CCCCN)NC(=O)[C@H](Cc2c[nH]c3ccccc23)NC1=O [PKTD18, —S—R—F—Y—V—V—M—W—K—p—P—G—L—S—V—K—V—V—N—G—] (HELM PEPTIDE1{S.R.F.Y.V.[dV].M.W.K.[dP].P.G.L.S.V.K.V.V.N.G}$PEPTIDE1,PEPTIDE1,1:R1-20:R2$$$V2.0) | 82.45% | 75.12% | 67.48% | – | – |
| —S—R—F—Y—V—V—M—W—K—Q—p—P—S—G—L—S—V—K—V—V—N—S— [PKTD11] | – | – | – | dose-dependent viability decrease | efficiency in inducing cell death on cancer cell lines [1]: efficient in inducing cell death |
| —S—R—F—Y—V—V—M—W—K—p—P—S—R—F—Y—V—V—M—W—K— (SRFYVVMWKPPSRFYVVMWK; HELM PEPTIDE1{S.R.F.Y.V.V.M.W.K.[dP].P.S.R.F.Y.V.V.M.W.K}$PEPTIDE1,PEPTIDE1,1:R1-20:R2$$$V2.0; SMILES CSCC[C@@H]1NC(=O)[C@H](C(C)C)NC(=O)[C@H](C(C)C)NC(=O)[C@H](Cc2ccc(O)cc2)NC(=O)[C@H](Cc2ccccc2)NC(=O)[C@H](CCCNC(=N)N)NC(=O)[C@H](CO)NC(=O)[C@@H]2CCCN2C(=O)[C@H]2CCCN2C(=O)[C@H](CCCCN)NC(=O)[C@H](Cc2c[nH]c3ccccc23)NC(=O)[C@H](CCSC)NC(=O)[C@H](C(C)C)NC(=O)[C@H](C(C)C)NC(=O)[C@H](Cc2ccc(O)cc2)NC(=O)[C@H](Cc2ccccc2)NC(=O)[C@H](CCCNC(=N)N)NC(=O)[C@H](CO)NC(=O)[C@H](CCCCN)NC(=O)[C@H](Cc2c[nH]c3ccccc23)NC1=O; listed as Homo sapiens) [PKTD16] | – | – | – | dose-dependent viability decrease | – |

— patent US11306124B2, “Agonist agents of CD47 inducing programmed cell death and their use in the treatments of diseases associated with defects in programmed cell death” (SORBONNE UNIVERSITE, priority 2016, dated 2022)
